Assay results taken from ChEMBL document CHEMBL5442334, “ASAP - In vitro safety pharmacology profile” (2024).

Assays:
[1] = target: T1, Amine oxidase [flavin-containing] A (Rattus norvegicus, UniProt P21396); assay: SafetyScreen: Monoamine Oxidase A (MAO-A) Rat Binding Antagonist Radioligand LeadHunter Assay, catalogue number: 443; conditions: at 10 µM, test compound concentration 10 uM
T1 sequence (P21396 whole entry): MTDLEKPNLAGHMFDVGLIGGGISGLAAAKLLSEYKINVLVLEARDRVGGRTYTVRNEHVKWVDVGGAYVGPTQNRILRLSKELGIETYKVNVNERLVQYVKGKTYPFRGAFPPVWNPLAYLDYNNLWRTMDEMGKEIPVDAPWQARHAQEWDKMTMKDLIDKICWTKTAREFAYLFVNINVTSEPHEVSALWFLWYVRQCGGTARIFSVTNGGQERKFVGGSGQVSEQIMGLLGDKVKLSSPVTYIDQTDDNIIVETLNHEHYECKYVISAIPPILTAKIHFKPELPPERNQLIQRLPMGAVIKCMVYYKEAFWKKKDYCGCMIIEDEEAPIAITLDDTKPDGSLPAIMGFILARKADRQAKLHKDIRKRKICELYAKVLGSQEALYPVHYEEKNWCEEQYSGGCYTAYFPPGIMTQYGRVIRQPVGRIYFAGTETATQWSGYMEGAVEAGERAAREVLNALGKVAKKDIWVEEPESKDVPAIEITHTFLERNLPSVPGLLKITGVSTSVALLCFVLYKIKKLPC

[2] = target: Kappa-type opioid receptor (Homo sapiens) (UniProt P41145); assay: SafetyScreen: kappa (KOP) Human Opioid GPCR Binding Agonist Radioligand LeadHunter Assay, catalogue number: 4461; conditions: Test compound concentration 10.0 uM
[3] = target: T2, Androgen receptor (Homo sapiens) (UniProt P10275); assay: SafetyScreen: AR Human Androgen NHR Binding Agonist Radioligand LeadHunter Assay, catalogue number: 933; conditions: Test compound concentration 10.0 uM
T2 sequence (whole entry): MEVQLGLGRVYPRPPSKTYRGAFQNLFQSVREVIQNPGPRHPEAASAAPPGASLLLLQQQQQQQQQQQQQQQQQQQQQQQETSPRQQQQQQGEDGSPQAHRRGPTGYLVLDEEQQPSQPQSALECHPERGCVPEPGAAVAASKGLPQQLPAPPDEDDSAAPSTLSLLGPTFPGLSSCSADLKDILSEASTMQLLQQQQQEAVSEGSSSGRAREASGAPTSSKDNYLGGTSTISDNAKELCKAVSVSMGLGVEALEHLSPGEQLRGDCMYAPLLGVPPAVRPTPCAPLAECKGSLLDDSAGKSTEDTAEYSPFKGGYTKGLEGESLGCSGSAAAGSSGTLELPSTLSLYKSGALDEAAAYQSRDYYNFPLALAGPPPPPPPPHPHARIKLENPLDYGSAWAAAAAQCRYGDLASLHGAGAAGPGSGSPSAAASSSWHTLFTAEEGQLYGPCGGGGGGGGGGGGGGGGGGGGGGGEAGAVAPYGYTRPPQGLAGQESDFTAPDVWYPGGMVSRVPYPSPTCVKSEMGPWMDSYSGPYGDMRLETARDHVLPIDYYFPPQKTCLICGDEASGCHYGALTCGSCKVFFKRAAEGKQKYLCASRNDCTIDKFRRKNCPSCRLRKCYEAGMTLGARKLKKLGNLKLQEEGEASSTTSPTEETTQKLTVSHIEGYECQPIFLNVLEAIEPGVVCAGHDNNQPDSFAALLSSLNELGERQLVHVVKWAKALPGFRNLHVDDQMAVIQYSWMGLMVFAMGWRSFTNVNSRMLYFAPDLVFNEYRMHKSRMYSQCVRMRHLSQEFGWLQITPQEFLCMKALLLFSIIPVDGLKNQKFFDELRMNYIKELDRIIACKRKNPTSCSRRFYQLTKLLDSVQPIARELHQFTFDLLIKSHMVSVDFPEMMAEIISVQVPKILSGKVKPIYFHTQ

[4] = target: T3, Alpha-2A adrenergic receptor (Homo sapiens) (UniProt P08913); assay: SafetyScreen: alpha2A Human Adrenoceptor GPCR Binding Antagonist Radioligand LeadHunter Assay, catalogue number: 13; conditions: Test compound concentration 10.0 uM
T3 sequence (whole entry): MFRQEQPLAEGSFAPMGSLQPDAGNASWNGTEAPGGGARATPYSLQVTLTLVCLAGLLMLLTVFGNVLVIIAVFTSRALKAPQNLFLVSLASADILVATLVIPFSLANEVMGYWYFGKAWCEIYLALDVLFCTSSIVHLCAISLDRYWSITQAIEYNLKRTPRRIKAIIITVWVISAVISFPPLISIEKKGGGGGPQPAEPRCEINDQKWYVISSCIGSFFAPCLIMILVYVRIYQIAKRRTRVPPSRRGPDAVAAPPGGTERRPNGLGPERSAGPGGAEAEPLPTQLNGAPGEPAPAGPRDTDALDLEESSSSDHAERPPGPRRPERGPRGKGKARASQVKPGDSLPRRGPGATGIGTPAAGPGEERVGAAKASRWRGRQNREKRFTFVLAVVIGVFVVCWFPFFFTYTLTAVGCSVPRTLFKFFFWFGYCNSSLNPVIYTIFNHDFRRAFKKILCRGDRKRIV

[5] = target: T4, Cholecystokinin receptor type A (Homo sapiens) (UniProt P32238); assay: SafetyScreen: CCK1 (CCKA) Human Cholecystokinin GPCR Binding Agonist Radioligand LeadHunter Assay, catalogue number: 39; conditions: Test compound concentration 10.0 uM
T4 sequence (whole entry): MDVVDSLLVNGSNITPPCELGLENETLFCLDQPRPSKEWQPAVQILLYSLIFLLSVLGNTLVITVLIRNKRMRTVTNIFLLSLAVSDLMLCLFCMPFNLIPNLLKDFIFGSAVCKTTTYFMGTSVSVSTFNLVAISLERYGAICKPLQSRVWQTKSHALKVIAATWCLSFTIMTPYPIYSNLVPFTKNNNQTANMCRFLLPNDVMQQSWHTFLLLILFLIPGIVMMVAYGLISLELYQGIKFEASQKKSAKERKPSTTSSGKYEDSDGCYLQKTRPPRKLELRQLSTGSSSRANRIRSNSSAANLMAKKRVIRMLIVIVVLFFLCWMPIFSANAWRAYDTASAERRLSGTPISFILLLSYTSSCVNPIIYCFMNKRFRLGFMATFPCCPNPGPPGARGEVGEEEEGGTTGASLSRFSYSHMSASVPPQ

[6] = target: Voltage-gated inwardly rectifying potassium channel KCNH2 (Homo sapiens, UniProt Q12809); assay: SafetyScreen: hERG Human Potassium Ion Channel [3H] Dofetilide Binding Antagonist Radioligand SafetyScreen, catalogue number: 4094; conditions: at 10 µM, test compound concentration 10 uM
Rattus norvegicus = species on record: Rattus norvegicus; assay: SafetyScreen: KV (Non-Selective) Rat Potassium Ion Channel [125I] alpha-Dendrotoxin Binding LeadHunter Assay, catalogue number: 166; conditions: Test compound concentration 10.0 uM
[7] = target: D(2) dopamine receptor (Homo sapiens) (UniProt P14416); assay: SafetyScreen: D2S Human Dopamine GPCR Binding Agonist Radioligand LeadHunter Assay, catalogue number: 1322; conditions: Test compound concentration 10.0 uM
[8] = target: Muscarinic acetylcholine receptor M3 (Homo sapiens) (UniProt P20309); assay: SafetyScreen: M3 Human Acetylcholine (Muscarinic) GPCR Binding Antagonist Radioligand LeadHunter Assay, catalogue number: 95; conditions: Test compound concentration 10.0 uM
[9] = target: 3',5'-cyclic-AMP phosphodiesterase 4D (Homo sapiens) (UniProt Q08499); assay: SafetyScreen: PDE4D2 Human Phosphodiesterase Enzymatic LeadHunter Assay, catalogue number: 4077; type: functional; conditions: Test compound concentration 10.0 uM
Sequence of 3',5'-cyclic-AMP phosphodiesterase 4D (Homo sapiens) (Q08499 whole entry): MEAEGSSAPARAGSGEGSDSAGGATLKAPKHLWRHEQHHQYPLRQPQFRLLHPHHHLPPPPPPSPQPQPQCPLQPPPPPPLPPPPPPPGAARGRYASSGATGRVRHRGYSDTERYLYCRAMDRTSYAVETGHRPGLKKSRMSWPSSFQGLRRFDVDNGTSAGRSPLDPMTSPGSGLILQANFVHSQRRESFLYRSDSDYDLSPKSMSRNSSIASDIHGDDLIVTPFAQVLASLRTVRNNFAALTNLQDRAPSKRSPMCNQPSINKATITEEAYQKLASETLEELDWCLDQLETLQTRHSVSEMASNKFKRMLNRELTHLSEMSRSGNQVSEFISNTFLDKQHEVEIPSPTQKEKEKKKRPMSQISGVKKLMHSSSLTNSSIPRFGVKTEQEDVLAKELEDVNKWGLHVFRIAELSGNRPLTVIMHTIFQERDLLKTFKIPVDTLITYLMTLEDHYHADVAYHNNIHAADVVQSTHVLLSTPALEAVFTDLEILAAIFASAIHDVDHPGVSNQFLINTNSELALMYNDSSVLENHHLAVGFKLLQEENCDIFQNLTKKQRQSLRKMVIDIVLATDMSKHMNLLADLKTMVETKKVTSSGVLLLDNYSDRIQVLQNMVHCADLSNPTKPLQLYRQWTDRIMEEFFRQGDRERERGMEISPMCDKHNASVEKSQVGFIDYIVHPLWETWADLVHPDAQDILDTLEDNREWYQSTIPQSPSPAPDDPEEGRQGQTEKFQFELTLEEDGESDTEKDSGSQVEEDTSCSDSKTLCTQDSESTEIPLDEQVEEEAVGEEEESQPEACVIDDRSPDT

Sequence of Voltage-gated inwardly rectifying potassium channel KCNH2 (Q12809 whole entry): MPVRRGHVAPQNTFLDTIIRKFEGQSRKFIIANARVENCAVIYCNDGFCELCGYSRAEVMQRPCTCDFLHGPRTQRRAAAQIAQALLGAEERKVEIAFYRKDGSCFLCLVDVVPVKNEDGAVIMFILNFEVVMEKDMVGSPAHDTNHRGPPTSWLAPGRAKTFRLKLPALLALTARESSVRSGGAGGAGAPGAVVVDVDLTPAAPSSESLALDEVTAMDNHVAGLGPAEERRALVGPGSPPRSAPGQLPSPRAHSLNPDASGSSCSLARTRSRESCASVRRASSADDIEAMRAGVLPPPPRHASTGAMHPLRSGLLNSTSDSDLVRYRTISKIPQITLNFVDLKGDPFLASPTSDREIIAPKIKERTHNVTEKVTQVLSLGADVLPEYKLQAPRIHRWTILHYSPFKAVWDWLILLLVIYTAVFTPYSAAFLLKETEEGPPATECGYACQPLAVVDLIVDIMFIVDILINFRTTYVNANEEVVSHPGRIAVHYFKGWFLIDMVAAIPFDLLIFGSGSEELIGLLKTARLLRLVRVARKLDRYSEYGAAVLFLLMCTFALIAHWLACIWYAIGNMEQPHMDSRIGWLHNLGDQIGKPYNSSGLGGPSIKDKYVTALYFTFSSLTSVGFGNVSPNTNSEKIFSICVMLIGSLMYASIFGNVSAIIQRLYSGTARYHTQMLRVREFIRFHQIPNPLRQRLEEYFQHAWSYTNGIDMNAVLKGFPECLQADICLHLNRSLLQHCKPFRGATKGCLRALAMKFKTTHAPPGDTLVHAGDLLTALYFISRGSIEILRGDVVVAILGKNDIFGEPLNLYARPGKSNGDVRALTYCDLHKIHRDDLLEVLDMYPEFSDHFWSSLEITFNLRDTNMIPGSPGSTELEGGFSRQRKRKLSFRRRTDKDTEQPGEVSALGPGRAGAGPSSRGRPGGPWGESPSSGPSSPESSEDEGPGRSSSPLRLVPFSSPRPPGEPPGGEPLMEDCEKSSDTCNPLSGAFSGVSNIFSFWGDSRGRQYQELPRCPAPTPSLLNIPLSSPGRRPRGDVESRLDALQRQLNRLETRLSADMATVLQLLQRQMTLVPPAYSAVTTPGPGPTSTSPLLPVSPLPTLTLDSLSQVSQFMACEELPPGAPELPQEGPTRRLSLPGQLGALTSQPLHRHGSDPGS
Sequence of D(2) dopamine receptor (Homo sapiens) (P14416 whole entry): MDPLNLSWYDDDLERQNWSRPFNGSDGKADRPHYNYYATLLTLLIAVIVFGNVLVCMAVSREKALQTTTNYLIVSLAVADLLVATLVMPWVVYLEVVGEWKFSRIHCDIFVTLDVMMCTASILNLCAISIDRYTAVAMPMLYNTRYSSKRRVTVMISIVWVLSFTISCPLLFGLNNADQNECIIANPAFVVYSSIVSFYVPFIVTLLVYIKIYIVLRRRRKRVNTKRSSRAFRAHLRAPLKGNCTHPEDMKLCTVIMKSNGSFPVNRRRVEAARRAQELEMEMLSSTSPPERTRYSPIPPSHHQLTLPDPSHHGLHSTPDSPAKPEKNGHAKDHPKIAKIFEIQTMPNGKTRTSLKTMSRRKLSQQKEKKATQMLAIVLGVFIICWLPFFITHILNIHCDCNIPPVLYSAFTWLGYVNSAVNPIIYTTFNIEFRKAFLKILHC
Sequence of Muscarinic acetylcholine receptor M3 (Homo sapiens) (P20309 whole entry, looked up): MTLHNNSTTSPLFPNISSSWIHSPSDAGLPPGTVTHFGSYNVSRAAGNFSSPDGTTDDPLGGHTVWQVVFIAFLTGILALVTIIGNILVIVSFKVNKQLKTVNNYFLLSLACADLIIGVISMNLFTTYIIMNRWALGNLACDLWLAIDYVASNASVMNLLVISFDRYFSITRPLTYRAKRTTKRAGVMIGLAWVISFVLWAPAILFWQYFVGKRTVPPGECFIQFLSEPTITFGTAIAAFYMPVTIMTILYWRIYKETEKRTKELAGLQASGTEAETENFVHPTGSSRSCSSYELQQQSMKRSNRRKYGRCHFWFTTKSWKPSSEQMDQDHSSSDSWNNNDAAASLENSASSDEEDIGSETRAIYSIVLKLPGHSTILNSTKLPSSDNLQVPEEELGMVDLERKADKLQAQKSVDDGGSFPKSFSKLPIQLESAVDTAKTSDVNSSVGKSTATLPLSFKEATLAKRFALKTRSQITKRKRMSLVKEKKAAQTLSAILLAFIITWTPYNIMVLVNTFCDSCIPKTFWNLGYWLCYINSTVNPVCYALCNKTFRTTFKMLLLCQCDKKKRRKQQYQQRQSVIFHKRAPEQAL
Sequence of Kappa-type opioid receptor (Homo sapiens) (P41145 whole entry): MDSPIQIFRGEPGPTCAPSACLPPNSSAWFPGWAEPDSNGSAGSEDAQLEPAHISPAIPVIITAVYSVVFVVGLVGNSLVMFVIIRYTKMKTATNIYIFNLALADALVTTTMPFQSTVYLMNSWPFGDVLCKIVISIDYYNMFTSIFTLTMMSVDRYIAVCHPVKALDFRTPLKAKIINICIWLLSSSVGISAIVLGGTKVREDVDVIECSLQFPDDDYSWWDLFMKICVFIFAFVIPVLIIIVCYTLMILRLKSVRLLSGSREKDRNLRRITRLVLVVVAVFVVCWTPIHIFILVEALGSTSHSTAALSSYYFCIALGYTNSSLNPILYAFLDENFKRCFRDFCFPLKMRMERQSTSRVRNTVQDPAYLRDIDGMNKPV

Which Inhibition [1] does the source give for `C[C@H](C(=O)O)[C@@H](NC(=O)c1ncnc2[nH]ccc12)c1ccc(Br)cc1` here?
The Inhibition was -1%.

And the inhibition [2]?
Its inhibition is 2%.

And the inhibition [3]?
The inhibition was 12%.

What about the inhibition [4] of the same molecule?
The inhibition was 3%.

What about the inhibition [5] of the same molecule?
The inhibition was 6%.

And the Inhibition [6]?
The Inhibition was 14%.

What about the inhibition (Rattus norvegicus) of the same molecule?
Its inhibition is 0%.

What about the inhibition [7] of the same molecule?
Its inhibition is -1%.

What about the inhibition [8] of the same molecule?
The inhibition was -9%.

And the inhibition [9]?
The inhibition was 30%.

With `COc1ccc([C@H](Cc2nnn[nH]2)NC(=O)c2ncnc3[nH]ccc23)cc1` as the molecule, how does the Inhibition [1] read?
The Inhibition was 0%.

And the inhibition [2]?
Its inhibition is 2%.

What about the inhibition [3] of the same molecule?
Its inhibition is -2%.

What about the inhibition [4] of the same molecule?
Its inhibition is -1%.

And the inhibition [5]?
The inhibition was -5%.

What about the Inhibition [6] of the same molecule?
Its Inhibition is 5%.

And the inhibition (Rattus norvegicus)?
Its inhibition is -1%.

And the inhibition [7]?
Its inhibition is -4%.

What about the inhibition [9] of the same molecule?
The inhibition was 41%.

For `CC(C)[C@@H](Nc1ncnc2[nH]c(-c3cnn(C)c3C#N)cc12)c1ccc2c(n1)OCCO2`, which Inhibition [1] is on record?
The Inhibition was 8%.

And the inhibition [2]?
The inhibition was 56%.

What about the inhibition [3] of the same molecule?
Its inhibition is 12%.

And the inhibition [4]?
Its inhibition is 9%.

And the inhibition [5]?
Its inhibition is 20%.

And the Inhibition [6]?
Its Inhibition is 32%.

And the inhibition (Rattus norvegicus)?
The inhibition was 2%.

And the inhibition [7]?
Its inhibition is 3%.

What about the inhibition [8] of the same molecule?
The inhibition was 1%.

And the inhibition [9]?
Its inhibition is 44%.

`CNC(=O)Cn1cc(-c2cc3c(N[C@@H](c4ccc5c(c4)S(=O)(=O)CCC5)C(C)C)ncnc3[nH]2)cn1` was tested. Which Inhibition [1] did it give?
The Inhibition was 8%.

What about the inhibition [2] of the same molecule?
Its inhibition is 21%.

What about the inhibition [3] of the same molecule?
Its inhibition is 0%.

And the inhibition [4]?
The inhibition was 4%.

And the inhibition [5]?
Its inhibition is -4%.

What about the Inhibition [6] of the same molecule?
The Inhibition was 4%.

What about the inhibition (Rattus norvegicus) of the same molecule?
The inhibition was -2%.

What about the inhibition [8] of the same molecule?
Its inhibition is -9%.

And the inhibition [9]?
The inhibition was 41%.

Which results are given for `CC(C)[C@H](Nc1ncnc2[nH]ccc12)c1ccc2c(c1)S(=O)(=O)CCC2`?
Inhibition [1]: 7%; inhibition [2]: 84%; inhibition [3]: 0%; inhibition [4]: 10%; inhibition [5]: -2%; Inhibition [6]: 20%; inhibition (Rattus norvegicus): -10%; inhibition [8]: 5%; inhibition [9]: 36%

Which Inhibition [1] does the source give for `Cn1ncc(-c2cc3c(N[C@@H](c4ccc5c(n4)OCCO5)C(C)(C)C)ncnc3[nH]2)c1C#N` here?
The Inhibition was 10%.

What about the inhibition [2] of the same molecule?
Its inhibition is 33%.

What about the inhibition [3] of the same molecule?
Its inhibition is 5%.

What about the inhibition [4] of the same molecule?
Its inhibition is 11%.

What about the inhibition [5] of the same molecule?
Its inhibition is 4%.

What about the Inhibition [6] of the same molecule?
Its Inhibition is 36%.

What about the inhibition (Rattus norvegicus) of the same molecule?
The inhibition was 5%.

And the inhibition [7]?
Its inhibition is 13%.

And the inhibition [8]?
The inhibition was -8%.

What about the inhibition [9] of the same molecule?
Its inhibition is 20%.

For `CC(C)[C@@H](Nc1ncnc2[nH]c(C(=O)N[C@@H]3CCN(C)C3)cc12)c1ccc2c(c1)S(=O)(=O)CCC2`, which Inhibition [1] is on record?
Its Inhibition is 3%.

And the inhibition [2]?
Its inhibition is 78%.

What about the inhibition [3] of the same molecule?
The inhibition was -5%.

And the inhibition [4]?
The inhibition was 6%.

And the inhibition [5]?
Its inhibition is 7%.

What about the Inhibition [6] of the same molecule?
Its Inhibition is 7%.

What about the inhibition (Rattus norvegicus) of the same molecule?
Its inhibition is 2%.

And the inhibition [7]?
The inhibition was -7%.

And the inhibition [8]?
Its inhibition is -9%.

What about the inhibition [9] of the same molecule?
Its inhibition is 37%.

Which results are given for `CNCc1cc(-c2cc3c(N[C@@H](c4ccc5c(c4)S(=O)(=O)CCC5)C(C)C)ncnc3[nH]2)co1`?
Inhibition [1]: 11%; inhibition [2]: 57%; inhibition [3]: 10%; inhibition [4]: 15%; inhibition (Rattus norvegicus): 1%; inhibition [7]: -9%; inhibition [8]: 5%; inhibition [9]: 43%

`Cc1nn(C)cc1-c1cc2c(N[C@H](c3ccc4c(c3)S(=O)(=O)CCC4)C(C)C)ncnc2[nH]1` was tested. Which Inhibition [1] did it give?
The Inhibition was 5%.

What about the inhibition [2] of the same molecule?
The inhibition was 45%.

What about the inhibition [3] of the same molecule?
Its inhibition is 6%.

What about the inhibition [4] of the same molecule?
Its inhibition is 5%.

What about the inhibition [5] of the same molecule?
Its inhibition is -8%.

And the Inhibition [6]?
Its Inhibition is 3%.

What about the inhibition (Rattus norvegicus) of the same molecule?
Its inhibition is 1%.

And the inhibition [8]?
The inhibition was -9%.

And the inhibition [9]?
Its inhibition is 43%.

What does the source list for `CC(C)[C@H](Nc1ncnc2[nH]c(-c3cnn(C)c3C#N)cc12)c1ccc2c(n1)OCCO2`?
Inhibition [1]: 4%; inhibition [2]: 31%; inhibition [3]: -3%; inhibition [4]: 7%; inhibition [5]: 1%; Inhibition [6]: 29%; inhibition (Rattus norvegicus): 0%; inhibition [7]: -7%; inhibition [9]: 70%
